Among the data in patent US20110015119A1, “NOVEL SEMI-SYNTHETIC GLYCOPEPTIDES AS ANTIBACTERIAL AGENTS” (LEAD THERAPEUTICS, INC., priority 2009, published 2011) are MIC values, retold here.

What all share (type): cell-based
In experiment [1] the test system is Staphylococcus aureus 100 (ATCC 29213). Description: MIC by broth microdilution, SA 100. Summed up: (§1)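 Using automated dilution and transfer, MIC values are obtained by NCCLS/CLSI broth microdilution in Mueller-Hinton broth against clinical strains of varying glycopeptide susceptibility.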
Experiment [2] concerns Staphylococcus aureus 757 (MRSA). Description: MIC by broth microdilution, SA 757. The following applies: read-out: MIC SA 757. Summed up: as §1
The test system of experiment [3] is Staphylococcus aureus 2012 (VISA). Description: MIC by broth microdilution, SA 2012. As to conditions: class symbols. Summed up: as §1
For experiment [4], the system named is Staphylococcus epidermidis 835. Description: MIC by broth microdilution, SE 835. A digest of the protocol:
as §1

Experiment [5] has as its system Staphylococcus epidermidis 831 (MRSE). The experiment in a line: MIC by broth microdilution, SE 831. The following applies: read-out: MIC SE 831. A digest of the protocol:
as §1

For experiment [6], the system named is Enterococcus faecalis 101 (ATCC 29212). The experiment in a line: MIC by broth microdilution, EFc 101. The following applies: class symbols. Summed up: as §1
In experiment [7] the test system is Enterococcus faecalis 848 (VRE, Van A). Description: MIC by broth microdilution, EFc 848. The following applies: class symbols. A digest of the protocol:
as §1

The next experiment deals with Enterococcus faecium 800. The experiment in a line: MIC by broth microdilution, EFcm 800. A digest of the protocol: as §1
The test system of experiment [8] is Enterococcus faecium 752 (VRE, Van A). The experiment in a line: MIC by broth microdilution, EFcm 752. As to conditions: class symbols. Summed up:
as §1

In experiment [9] the test system is Streptococcus pneumoniae 1195 (ATCC 49619). Description: MIC by broth microdilution, SPNE 1195. Summed up: as §1
In experiment [10] the test system is Streptococcus pyogenes 712. Description: MIC by broth microdilution, SPY 712. Summed up: as §1
[11] abbreviates: Staphylococcus aureus, ATCC29213, read-out: MIC SA 100.
[12] abbreviates: Staphylococcus aureus, VISA, read-out: MIC SA 2012, Staphylococcus aureus 2012 (VISA).
[13] abbreviates: Staphylococcus epidermidis, 835, read-out: MIC SE 835.
The mark [14] stands for this setting: Staphylococcus epidermidis, MRSE.
[15] abbreviates: Enterococcus faecalis, ATCC29212, read-out: MIC E FC 101, Enterococcus faecalis 101 (ATCC 29212).
Setting [16] is: Enterococcus faecalis, VRE, read-out: MIC E FC 848, Enterococcus faecalis 848 (VRE, Van A).
Where [17] appears, read: Enterococcus faecium, 800, read-out: MIC E FCM 800.
[18] abbreviates: Enterococcus faecium, VRE, read-out: MIC E FCM 752, Enterococcus faecium 752 (VRE, Van A).
Setting [19] is: Streptococcus pneumoniae, ATCC49619, read-out: MIC S PNE 1195.
Setting [20] is: Streptococcus pyogenes, 712, read-out: MIC S PYO 712.

Values after ≈ are worked out from the molar mass of the structure shown. Where two headings read alike, the source gives them in different places.

In the case of `CCCCOc1ccc(CCNC(=O)Oc2cc(O)c3c(c2)[C@@H](C(=O)NC2C4CC5CC(C4)CC2C5)NC(=O)[C@H]2NC(=O)[C@H](NC(=O)[C@@H]4NC(=O)[C@H](CC(N)=O)NC(=O)[C@H](NC(=O)[C@@H](CC(C)C)NC)[C@H](O)c5ccc(c(Cl)c5)Oc5cc4cc(c5O[C@@H]4O[C@H](CO)[C@@H](O)[C@H](O)[C@H]4O[C@H]4C[C@](C)(N)[C@H](O)[C@H](C)O4)Oc4ccc(cc4Cl)[C@H]2O)c2ccc(O)c-3c2)cc1` (some centres unmarked) [Compound 339], the MIC in [1] (setting [11]) fell in the range of 0.01 to 0.5 µg/mL (≈ 0.00555 to 0.278 µM); in [2] (Staphylococcus aureus, MRSA), 0.01 to 0.5 µg/mL (≈ 0.00555 to 0.278 µM); in [3] (setting [12]), 0.5 to 1 µg/mL (≈ 0.278 to 0.555 µM); in experiment [4] (setting [13]), 0.01 to 0.5 µg/mL (≈ 0.00555 to 0.278 µM); in experiment [5] (setting [14]), 0.01 to 0.5 µg/mL (≈ 0.00555 to 0.278 µM); in [6] (setting [15]), 0.01 to 0.5 µg/mL (≈ 0.00555 to 0.278 µM). Besides, the minimum inhibitory concentration (MIC) in experiment [7] (setting [16]) was 4 to 8 µg/mL (≈ 2.22 to 4.44 µM); in the experiment with Enterococcus faecium 800 (setting [17]) it was 0.01 to 0.5 µg/mL (≈ 0.00555 to 0.278 µM); in experiment [8] (setting [18]), 0.5 to 1 µg/mL (≈ 0.278 to 0.555 µM); in experiment [9] (setting [19]), 0.01 to 0.5 µg/mL (≈ 0.00555 to 0.278 µM); in [10] (setting [20]), 0.01 to 0.5 µg/mL (≈ 0.00555 to 0.278 µM).

On to `CCCCc1ccc(NC(=O)Oc2cc(O)c3c(c2)[C@@H](C(=O)NC2C4CC5CC(C4)CC2C5)NC(=O)[C@H]2NC(=O)[C@H](NC(=O)[C@@H]4NC(=O)[C@H](CC(N)=O)NC(=O)[C@H](NC(=O)[C@@H](CC(C)C)NC)[C@H](O)c5ccc(c(Cl)c5)Oc5cc4cc(c5O[C@@H]4O[C@H](CO)[C@@H](O)[C@H](O)[C@H]4O[C@H]4C[C@](C)(N)[C@H](O)[C@H](C)O4)Oc4ccc(cc4Cl)[C@H]2O)c2ccc(O)c-3c2)cc1` (some centres unmarked) [Compound 331], for which the MIC lay in the range of 0.01 to 0.5 µg/mL (≈ 0.00569 to 0.284 µM) in experiment [1] (setting [11]); 0.01 to 0.5 µg/mL (≈ 0.00569 to 0.284 µM) in [2] (Staphylococcus aureus, MRSA); 1 to 2 µg/mL (≈ 0.569 to 1.14 µM) in experiment [3] (setting [12]); 0.5 to 1 µg/mL (≈ 0.284 to 0.569 µM) in [4] (setting [13]); 0.01 to 0.5 µg/mL (≈ 0.00569 to 0.284 µM) in experiment [5] (setting [14]); 0.5 to 1 µg/mL (≈ 0.284 to 0.569 µM) in experiment [6] (setting [15]). For the same molecule, the MIC was greater than 16 µg/mL in [7] (setting [16]); 0.01 to 0.5 µg/mL (≈ 0.00569 to 0.284 µM) with Enterococcus faecium 800 (setting [17]); 2 to 4 µg/mL (≈ 1.14 to 2.28 µM) in experiment [8] (setting [18]); 0.01 to 0.5 µg/mL (≈ 0.00569 to 0.284 µM) in experiment [9] (setting [19]); 0.01 to 0.5 µg/mL (≈ 0.00569 to 0.284 µM) in experiment [10] (setting [20]).

In the case of `CCCCCCc1ccc(S(=O)(=O)NCCCCCCNCc2c(O)cc3c(c2O)-c2cc(ccc2O)[C@H]2NC(=O)[C@@H]4NC(=O)[C@H](CC(N)=O)NC(=O)[C@H](NC(=O)[C@@H](CC(C)C)NC)[C@H](O)c5ccc(c(Cl)c5)Oc5cc4cc(c5O[C@@H]4O[C@H](CO)[C@@H](O)[C@H](O)[C@H]4O[C@H]4C[C@](C)(NC(C)=O)[C@H](O)[C@H](C)O4)Oc4ccc(cc4Cl)[C@@H](O)[C@H](NC2=O)C(=O)N[C@@H]3C(=O)O)cc1` (atropisomer, axis not shown) [Compound 363], the minimum inhibitory concentration (MIC) in [1] (ATCC29213, Staphylococcus aureus 100 (ATCC 29213), class symbols, read-out: MIC SA 100) is 0.01 to 0.5 µg/mL (≈ 0.00542 to 0.271 µM); in [2] (Staphylococcus aureus 757 (MRSA), class symbols) it was 0.01 to 0.5 µg/mL (≈ 0.00542 to 0.271 µM); in experiment [3] (Staphylococcus aureus 2012 (VISA), read-out: MIC SA 2012), 0.01 to 0.5 µg/mL (≈ 0.00542 to 0.271 µM); in experiment [4] (Staphylococcus epidermidis 835, class symbols, read-out: MIC SE 835), 0.01 to 0.5 µg/mL (≈ 0.00542 to 0.271 µM); in experiment [5] (Staphylococcus epidermidis 831 (MRSE), class symbols), 0.01 to 0.5 µg/mL (≈ 0.00542 to 0.271 µM); in experiment [6] (ATCC29212, Enterococcus faecalis 101 (ATCC 29212), read-out: MIC E FC 101), 0.01 to 0.5 µg/mL (≈ 0.00542 to 0.271 µM). Also, the MIC lay within 8 to 16 µg/mL (≈ 4.34 to 8.68 µM) in experiment [7] (Enterococcus faecalis 848 (VRE, Van A), read-out: MIC E FC 848); 0.01 to 0.5 µg/mL (≈ 0.00542 to 0.271 µM) in the experiment with Enterococcus faecium 800 (Enterococcus faecium 800, class symbols, read-out: MIC E FCM 800); 2 to 4 µg/mL (≈ 1.08 to 2.17 µM) in experiment [8] (Enterococcus faecium 752 (VRE, Van A), read-out: MIC E FCM 752); 0.01 to 0.5 µg/mL (≈ 0.00542 to 0.271 µM) in experiment [9] (ATCC49619, Streptococcus pneumoniae 1195 (ATCC 49619), class symbols, read-out: MIC S PNE 1195); 0.01 to 0.5 µg/mL (≈ 0.00542 to 0.271 µM) in experiment [10] (Streptococcus pyogenes 712, class symbols, read-out: MIC S PYO 712).

With `CCCCCOc1ccc(S(=O)(=O)NCCCCCCNC(=O)Oc2cc(O)c3c(c2)[C@@H](C(=O)NC2C4CC5CC(C4)CC2C5)NC(=O)[C@H]2NC(=O)[C@H](NC(=O)[C@@H]4NC(=O)[C@H](CC(N)=O)NC(=O)[C@H](NC(=O)[C@@H](CC(C)C)NC)[C@H](O)c5ccc(c(Cl)c5)Oc5cc4cc(c5O[C@@H]4O[C@H](CO)[C@@H](O)[C@H](O)[C@H]4O[C@H]4C[C@](C)(N)[C@H](O)[C@H](C)O4)Oc4ccc(cc4Cl)[C@H]2O)c2ccc(O)c-3c2)cc1` (some centres unmarked) [Compound 317], the minimal inhibitory concentration (MIC) fell in the range of 1 to 2 µg/mL (≈ 0.513 to 1.03 µM) in [1] (setting [11]); 0.5 to 1 µg/mL (≈ 0.256 to 0.513 µM) in experiment [2] (Staphylococcus aureus, MRSA); 8 to 16 µg/mL (≈ 4.1 to 8.2 µM) in [3] (setting [12]); 2 to 4 µg/mL (≈ 1.03 to 2.05 µM) in experiment [4] (setting [13]); 1 to 2 µg/mL (≈ 0.513 to 1.03 µM) in experiment [5] (setting [14]); 1 to 2 µg/mL (≈ 0.513 to 1.03 µM) in experiment [6] (setting [15]). Also, the minimum inhibitory concentration (MIC) in experiment [7] (setting [16]) was 8 to 16 µg/mL (≈ 4.1 to 8.2 µM); in the experiment with Enterococcus faecium 800 (setting [17]), 0.01 to 0.5 µg/mL (≈ 0.00513 to 0.256 µM); in [8] (setting [18]), 1 to 2 µg/mL (≈ 0.513 to 1.03 µM); in [9] (setting [19]), 0.01 to 0.5 µg/mL (≈ 0.00513 to 0.256 µM); in experiment [10] (setting [20]), 0.01 to 0.5 µg/mL (≈ 0.00513 to 0.256 µM).
